Where two headings read alike, the source gives them in different places. Peptide text beside a SMILES is read from it.
What was measured:
ERK2 D319N = target: T1, ERK2 D319N (Mus musculus, UniProt P63085, D319N); experiment: Competitive peptide kinase assay (D-peptide inhibition), ERK2 D319N; format: biochemical; details: Table S1, 5 μM reporter peptide, 10 nM ERK2, 10 μM ATP, three independent experiments
T1 construct: His6; made in house; host or cells: E. coli BL21(DE3), co-expressed with GST-MEK1ΔN3
Experimental: (§1) We determined relative binding affinities for D-peptides from their potency as competitive inhibitors of WT or mutant ERK2 activity on a D-site-dependent reporter substrate peptide (Table S1, Fig. 3A, S3).
(§2) Competitive peptide kinase assays were performed with a D-site dependent MAPK reporter substrate peptide (AssayQuant Technologies Inc, #AQT0376) as we reported previously ([15]). Briefly, 5 μM of reporter peptide was mixed with various concentrations of D-peptides in reaction buffer (54 mM HEPES [pH 7.4], 1.2 mM DTT, 0.01% Brij-35, 1% glycerol, 0.2 mg/ml BSA, and 10 mM MgCl2). […] Phosphorylation of the reporter peptide was measured by fluorescence (λex 360 nm, λem 485 nm) in 90 s intervals over 21 min in a Spectra M5 plate reader. Rates were calculated from the linear portion of the reaction progress curve, and data were normalized to maximum (samples lacking competitor peptide) and minimum (control reactions lacking kinase) values. Normalized rates were plotted against D-peptide concentration and fitted into a sigmoidal dose-response curve to determine the IC50 values using GraphPad Prism (Version 9.3.0).

ERK2 E322K = target: T2, ERK2 E322K (Mus musculus, UniProt P63085, E320K); experiment: Competitive peptide kinase assay (D-peptide inhibition), ERK2 E322K; format: biochemical; details: 10 nM ERK2, 10 μM ATP
T2 construct: His6; made in house; host or cells: E. coli BL21(DE3), co-expressed with GST-MEK1ΔN3
Experimental: as §1, §2

ERK2 R133K = target: T3, ERK2 R133K (Mus musculus, UniProt P63085, R133K); experiment: Competitive peptide kinase assay (D-peptide inhibition), ERK2 R133K; format: biochemical; details: 10 nM ERK2, 10 μM ATP
T3 construct: His6; made in house; host or cells: E. coli BL21(DE3), co-expressed with GST-MEK1ΔN3
Experimental: as §1, §2

ERK2 WT = target: T4, ERK2 WT (Mus musculus, UniProt P63085); experiment: Competitive peptide kinase assay (D-peptide inhibition), ERK2 WT; format: biochemical; details: 10 nM ERK2, 10 μM ATP
T4 construct: His6; made in house; host or cells: E. coli BL21(DE3), co-expressed with GST-MEK1ΔN3
Experimental: as §1, §2

WT ERK2 [1] = details: selective conditions (-His); hits Z > 3; average of three screens; cited from earlier work
Source text: Supplement mmc2.xlsx, sheet "WT Hits" | column: Z-score

WT ERK2 [2] = experiment: Y2H D-site library screen, WT ERK2; format: cell-based, rat; set-up: key: ES = slope of ln(Ft/F0) vs number of yeast population doublings; details: mutant ES is the combined average ES from the D319N and E320K screens
Source text: To examine how cancer-associated CD site mutations affect the scope of ERK2 docking interactions, we adopted a Y2H strategy that we previously applied to define the D-site interactome of WT ERK2 ([15]). This system reports on interactions between ERK2 and a fragment of its substrate ELK1 that harbors a docking site essential for binding (Fig. 1C). The system thus evaluates the binding of potential sequences by substituting them for the native ELK1 docking site. We transformed Y2H strains with a bait plasmid expressing the Gal4 DNA-binding domain (DBD) fused to WT or CD mutant forms of rat ERK2 (R133K, D319N or E320K, equivalent respectively to human R135K, D321N and E322K), along with a prey plasmid expressing Gal4 activation domain (AD) fused to the ELK1 fragment harboring various docking site sequences. We then assayed these strains for growth on solid media under non-selective (+His) and selective conditions (−His) to detect interactions (Fig. 1D).
We previously used the Y2H system to screen WT ERK2 against a pooled library of 11,756 ELK1 variants incorporating potential docking sites from the human proteome ([15]). To identify interacting sequences either gained or lost upon ERK2 CD site mutation, we screened the same library against ERK2^D319N and ERK2^E320K. Yeast expressing ERK2 mutant bait plasmids were transformed with the ELK1 library pool and subjected to competitive growth under selective (−His) and non-selective conditions (+His) in parallel. Cultures were sampled periodically over ∼7 population doublings. The DNA sequence encoding the variable docking site region was PCR amplified and analyzed by next-generation sequencing (Fig. 2A, Dataset S1). The change in sequence abundance over time was fitted to an exponential function to assign an enrichment score (ES) to each docking site, where a higher ES indicates a greater increase in sequence abundance as the population grows. A significant enrichment of docking site sequences was observed only under selective conditions (Figs. 2B, S1). For each mutant, we observed generally good reproducibility across three independently conducted screens albeit with some sequences enriched in only a single replicate (Fig. S2, A and B). Average ES scores for the E320K and D319N mutant screens were better correlated with each other (R = 0.83) than were average ES scores for either mutant compared to WT ERK2 (R = 0.67 for WT versus D319N, R = 0.63 for WT versus E320K) (Fig. S2C).
To compare sequences selected by CD mutants with those selected by WT ERK2, we defined those sequences with an ES equal to or higher than three standard deviations from the mean (Z > 3) as hits. Using this cutoff, we obtained 121, 127, and 153 hits sequences from the WT, D319N, and E320K screens, respectively (Fig. 2C, Dataset S2).
Yeast harboring pGBT9-ERK2^E320K or pGBT9-ERK2^D319N were transformed with the pGADGH-ELK1 D-site library plasmid pool. Transformants (10–40 colonies per library component) were suspended in SD-Leu-Trp media, diluted to an OD600 of 0.1, and cultured in a shaking incubator at 30 °C to an OD600 of 1.0. The resulting culture was used to initiate a competitive selection screen. Cell growth, sample collection and data analysis were performed exactly as described previously for WT ERK2 ([15]). The frequency (F) of each D-site sequence at a given time point (t) was calculated by dividing the number of reads by the total read count for all sequences. For each sequence, a plot of ln(Ft/F0) as a function of the number of yeast population doublings was fit to a line, and the enrichment score (ES) for that sequence was defined as the slope of this line. Illumina sequencing reads, calculated ES, and Z scores for each screen are provided in Dataset S1.

[3] = Table S1, 5 μM reporter peptide, three independent experiments
[4] = Table 2, 5 μM reporter peptide, mean of three independent replicates, read-out: IC50, ERK2 E322 K
[5] = Table 2, 5 μM D-site dependent reporter peptide, pH 7.4, fluorescence, mean of three independent replicates

T4 sequence (P63085 whole entry): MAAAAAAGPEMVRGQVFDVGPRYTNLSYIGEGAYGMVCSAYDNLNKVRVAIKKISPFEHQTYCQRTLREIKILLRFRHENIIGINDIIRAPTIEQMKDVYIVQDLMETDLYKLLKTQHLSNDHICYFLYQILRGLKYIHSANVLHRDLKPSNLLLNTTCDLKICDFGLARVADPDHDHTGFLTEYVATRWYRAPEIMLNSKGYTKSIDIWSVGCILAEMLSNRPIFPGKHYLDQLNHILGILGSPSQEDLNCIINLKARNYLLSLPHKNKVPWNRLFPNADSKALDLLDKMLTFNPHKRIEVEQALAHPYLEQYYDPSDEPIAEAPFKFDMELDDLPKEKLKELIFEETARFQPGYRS
T1 sequence (P63085 whole entry D319N): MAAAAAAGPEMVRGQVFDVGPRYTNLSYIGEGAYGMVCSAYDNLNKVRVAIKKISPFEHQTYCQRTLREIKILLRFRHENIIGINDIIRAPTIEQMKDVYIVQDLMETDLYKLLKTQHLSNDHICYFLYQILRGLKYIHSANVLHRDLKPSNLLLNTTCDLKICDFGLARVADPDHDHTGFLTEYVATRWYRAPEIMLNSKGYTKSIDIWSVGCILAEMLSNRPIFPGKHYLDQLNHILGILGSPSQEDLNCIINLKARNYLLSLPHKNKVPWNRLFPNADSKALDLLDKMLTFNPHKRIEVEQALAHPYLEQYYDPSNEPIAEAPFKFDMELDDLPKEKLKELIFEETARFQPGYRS
T3 sequence (P63085 whole entry R133K): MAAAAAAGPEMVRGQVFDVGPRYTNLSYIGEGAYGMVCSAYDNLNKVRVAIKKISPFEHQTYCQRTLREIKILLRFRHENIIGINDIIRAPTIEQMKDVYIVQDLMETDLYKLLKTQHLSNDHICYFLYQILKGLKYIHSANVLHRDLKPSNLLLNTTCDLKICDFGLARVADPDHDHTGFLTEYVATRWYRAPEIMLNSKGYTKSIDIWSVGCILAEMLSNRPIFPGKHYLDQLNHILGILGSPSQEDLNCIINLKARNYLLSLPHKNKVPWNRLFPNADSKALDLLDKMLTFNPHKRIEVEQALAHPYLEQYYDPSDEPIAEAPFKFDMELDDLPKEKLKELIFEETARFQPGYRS
T2 sequence (P63085 whole entry E320K): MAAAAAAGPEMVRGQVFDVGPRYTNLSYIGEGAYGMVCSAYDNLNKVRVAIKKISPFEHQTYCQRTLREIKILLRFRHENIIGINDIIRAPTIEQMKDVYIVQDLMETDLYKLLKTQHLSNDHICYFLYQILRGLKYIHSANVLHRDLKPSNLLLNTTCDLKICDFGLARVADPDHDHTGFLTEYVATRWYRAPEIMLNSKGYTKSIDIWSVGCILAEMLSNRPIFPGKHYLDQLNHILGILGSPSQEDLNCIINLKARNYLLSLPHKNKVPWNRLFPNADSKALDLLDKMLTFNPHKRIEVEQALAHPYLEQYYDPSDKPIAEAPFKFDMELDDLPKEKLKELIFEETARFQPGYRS

Row | IC50 (ERK2 D319N) | IC50 (ERK2 E322K; [3]) | IC50 (ERK2 R133K; [3]) | IC50 (ERK2 WT; [3]) | IC50 (ERK2 E322K; [4]) | Compound | other results
1 | 120 µM | 160 µM | 110 µM | 16 µM | – | CC(C)C[C@H](NC(=O)[C@H](C)NC(=O)[C@@H](N)Cc1ccc(O)cc1)C(=O)N[C@@H](CCC(N)=O)C(=O)N[C@@H](CCC(N)=O)C(=O)N[C@@H](CCCNC(=N)N)C(=O)N[C@@H](CCCNC(=N)N)C(=O)N[C@@H](CC(C)C)C(=O)N[C@@H](CCC(N)=O)C(=O)N[C@@H](Cc1c[nH]cn1)C(=O)N[C@@H](CCCNC(=N)N)C(=O)N[C@@H](CC(C)C)C(=O)N[C@@H](CCCNC(=N)N)C(=O)N[C@@H](CC(C)C)C(=O)N[C@@H](CCCNC(=N)N)C(=O)N[C@@H](C)C(=O)O [AEBP1] (H-YALQQRRLQHRLRLRA-OH) | –
2 | – | – | 340 µM | 32 µM | – | CSCC[C@H](NC(=O)[C@H](CC(C)C)NC(=O)[C@H](C)NC(=O)[C@@H](N)Cc1ccc(O)cc1)C(=O)N[C@@H](CCC(=O)O)C(=O)N[C@@H](CCCNC(=N)N)C(=O)N[C@@H](CCCNC(=N)N)C(=O)N[C@@H](CCCNC(=N)N)C(=O)N[C@@H](CC(C)C)C(=O)N[C@@H](CC(N)=O)C(=O)N[C@@H](CCC(N)=O)C(=O)N[C@@H](CC(C)C)C(=O)N[C@@H](CC(C)C)C(=O)N[C@@H](CC(C)C)C(=O)N1CCC[C@H]1C(=O)N[C@@H](CC(C)C)C(=O)O [ANAPC5] (H-YALMERRRLNQLLLPL-OH) | –
3 | 300 µM | – | – | – | – | CC(C)C[C@H](NC(=O)[C@H](C)NC(=O)[C@@H](N)Cc1ccc(O)cc1)C(=O)NCC(=O)N[C@@H](CO)C(=O)N[C@@H](CCCNC(=N)N)C(=O)N[C@@H](CCCNC(=N)N)C(=O)NCC(=O)N[C@@H](CCCNC(=N)N)C(=O)N[C@@H](CO)C(=O)N[C@@H](CO)C(=O)N[C@@H](CC(C)C)C(=O)N[C@@H](CO)C(=O)N[C@@H](CC(C)C)C(=O)N[C@@H](C)C(=O)N[C@@H](CCCCN)C(=O)O [ARHGEF2] | –
4 | 9.8 µM | 14 µM | 5.7 µM | 5.1 µM | – | CC(C)C[C@H](NC(=O)[C@H](CC(C)C)NC(=O)[C@H](CC(C)C)NC(=O)[C@H](CCCNC(=N)N)NC(=O)[C@H](CCCCN)NC(=O)[C@@H]1CCCN1C(=O)[C@H](CCCCN)NC(=O)[C@@H]1CCCN1C(=O)CNC(=O)[C@H](CCCNC(=N)N)NC(=O)[C@H](CCCCN)NC(=O)[C@H](CCCNC(=N)N)NC(=O)[C@H](C)NC(=O)[C@@H](N)Cc1ccc(O)cc1)C(=O)N[C@@H](CCC(N)=O)C(=O)N[C@@H](CCCNC(=N)N)C(=O)O [CBX7] (H-YARKRGPKPKRLLLQR-OH) | –
5 | 79 µM | 110 µM | 74 µM | 23 µM | – | CC[C@H](C)[C@H](NC(=O)[C@@H](NC(=O)[C@H](CCC(=O)O)NC(=O)[C@H](CCSC)NC(=O)[C@H](CCC(N)=O)NC(=O)[C@H](CCCNC(=N)N)NC(=O)[C@H](CCCNC(=N)N)NC(=O)[C@H](CC(N)=O)NC(=O)[C@H](CCCNC(=N)N)NC(=O)[C@H](CC(C)C)NC(=O)[C@H](C)NC(=O)[C@@H](N)Cc1ccc(O)cc1)C(C)C)C(=O)N[C@@H](CO)C(=O)N[C@@H](CC(C)C)C(=O)N[C@@H](CCCNC(=N)N)C(=O)N[C@@H](CC(C)C)C(=O)O [DISC1] (H-YALRNRRQMEVISLRL-OH) | –
6 | 32 µM | 43 µM | 58 µM | 35 µM | – | CC(C)C[C@H](NC(=O)[C@H](CC(=O)O)NC(=O)[C@H](CCCNC(=N)N)NC(=O)[C@@H]1CCCN1C(=O)[C@H](CCCCN)NC(=O)[C@H](CCCNC(=N)N)NC(=O)CNC(=O)[C@H](CCCCN)NC(=O)[C@H](C)NC(=O)[C@@H](N)Cc1ccc(O)cc1)C(=O)N[C@@H](CCC(=O)O)C(=O)N[C@@H](CC(C)C)C(=O)N1CCC[C@H]1C(=O)N[C@@H](CC(C)C)C(=O)N[C@@H](CO)C(=O)N1CCC[C@H]1C(=O)O [ELK1] (H-YAKGRKPRDLELPLSP-OH) | –
7 | – | – | – | – | 170 µM | CC[C@H](C)[C@H](NC(=O)[C@H](C)NC(=O)[C@@H](N)Cc1ccc(O)cc1)C(=O)NCC(=O)N[C@@H](CCCNC(=N)N)C(=O)N[C@@H](C)C(=O)N[C@@H](CCCNC(=N)N)C(=O)N[C@@H](CCCNC(=N)N)C(=O)NCC(=O)N[C@@H](CC(C)C)C(=O)N1CCC[C@H]1C(=O)N[C@@H](CCCNC(=N)N)C(=O)N[C@@H](CC(C)C)C(=O)N[C@@H](C)C(=O)N[C@H](C(=O)N[C@@H](CO)C(=O)N[C@@H](CC(=O)O)C(=O)O)C(C)C [ISG20 peptide G2+] (H-YAIGRARRGLPRLAVSD-OH) | IC50 (ERK2 WT; [5]): 120 µM
8 | – | – | – | – | 210 µM | CC[C@H](C)[C@H](NC(=O)[C@H](C)NC(=O)[C@@H](N)Cc1ccc(O)cc1)C(=O)N[C@@H](CCCNC(=N)N)C(=O)N[C@@H](C)C(=O)N[C@@H](CCCNC(=N)N)C(=O)N[C@@H](CCCNC(=N)N)C(=O)NCC(=O)NCC(=O)N[C@@H](CC(C)C)C(=O)N1CCC[C@H]1C(=O)N[C@@H](CCCNC(=N)N)C(=O)N[C@@H](CC(C)C)C(=O)N[C@@H](C)C(=O)N[C@H](C(=O)N[C@@H](CO)C(=O)N[C@@H](CC(=O)O)C(=O)O)C(C)C [ISG20 peptide G7+] (H-YAIRARRGGLPRLAVSD-OH) | IC50 (ERK2 R133K; Table 2, 5 μM reporter peptide, mean of three independent replicates, read-out: IC50, ERK2 R133 K): 170 µM; IC50 (ERK2 WT; [5]): 75 µM
9 | – | – | – | – | 300 µM | CC[C@H](C)[C@H](NC(=O)[C@H](C)NC(=O)[C@@H](N)Cc1ccc(O)cc1)C(=O)N[C@@H](CCCNC(=N)N)C(=O)N[C@@H](C)C(=O)N[C@@H](C)C(=O)N[C@@H](CCCNC(=N)N)C(=O)NCC(=O)N[C@@H](CC(C)C)C(=O)N1CCC[C@H]1C(=O)N[C@@H](CCCNC(=N)N)C(=O)N[C@@H](CC(C)C)C(=O)N[C@@H](C)C(=O)N[C@H](C(=O)N[C@@H](CO)C(=O)N[C@@H](CC(=O)O)C(=O)O)C(C)C [ISG20 peptide R4A] | –
10 | – | – | – | – | 400 µM | CC[C@H](C)[C@H](NC(=O)[C@H](C)NC(=O)[C@@H](N)Cc1ccc(O)cc1)C(=O)N[C@@H](CCCNC(=N)N)C(=O)N[C@@H](C)C(=O)N[C@@H](CCCNC(=N)N)C(=O)N[C@@H](C)C(=O)NCC(=O)N[C@@H](CC(C)C)C(=O)N1CCC[C@H]1C(=O)N[C@@H](CCCNC(=N)N)C(=O)N[C@@H](CC(C)C)C(=O)N[C@@H](C)C(=O)N[C@H](C(=O)N[C@@H](CO)C(=O)N[C@@H](CC(=O)O)C(=O)O)C(C)C [ISG20 peptide R5A] | –
11 | – | – | – | – | – | RRRGRPPKRIHISQ [BAZ1A, D-site 14-mer in ELK1 Y2H prey] | Z-score (ES) of hit sequences, WT ERK2 Y2H screen (WT ERK2 [1]): 4.55; WT ES - mutant ES (WT ERK2 [2]): 0.150
12 | – | – | – | – | – | RSKLRKPKPVPLRK [TACC1, D-site 14-mer in ELK1 Y2H prey] | Z-score (ES) of hit sequences, WT ERK2 Y2H screen (WT ERK2 [1]): 5.18; WT ES - mutant ES (WT ERK2 [2]): 0.162
13 | – | – | – | – | – | TRHERNYTKVNFCK [ZNF675, D-site 14-mer in ELK1 Y2H prey] | Z-score (ES) of hit sequences, WT ERK2 Y2H screen (WT ERK2 [1]): 7.60; WT ES - mutant ES (WT ERK2 [2]): 0.359
